Drawing on patent US12559474B2, “Triazine derivatives having virus replication inhibitory activity and pharmaceutical composition comprising the same” (priority 2021, dated 2026), this text covers IC50 and EC50 for 26 compounds.

The target of one assay is SARS-CoV-2 3CL protease (Severe acute respiratory syndrome coronavirus 2, UniProt P0DTD1). Kind of assay: biochemical. Conditions: 50% SARS-CoV-2 3CL protease inhibitory concentration, read-out: IC50.
The next assay has as its system SARS-CoV-2. Kind of assay: microbe, parasite or virus in culture. It is filed as cell-based. Conditions: Severe acute respiratory syndrome coronavirus 2, VeroE6/TMPRSS2, 72 h, 50% SARS-CoV-2 infected cell death inhibitory concentration, VeroE6/TMPRSS2 cells, 3 days culture.

pEC50, pIC50: −log10 of the molar value. Where two headings read alike, the source gives them in different places.

One may read the pIC50 as −log10 of the IC50, conventionally taken in molar units. By pEC50 is commonly meant the negative decadic logarithm of the EC50, by convention in mol/L. For `CNc1nc2ccc(Nc3nc(=O)n(-c4cncc(Cl)c4)c(=O)n3Cc3cc(C#N)ccc3Cl)cc2s1` [II-0398], the pIC50 on SARS-CoV-2 3CL protease (given as class symbols) was more than 7.00. In the assay with SARS-CoV-2 (class symbols), this compound had a pEC50 of more than 6.00.
The matching figures for `CNc1nc2cc(F)c(Nc3nc(=O)n(Cc4ncn(C)n4)c(=O)n3Cc3cc(F)c(F)cc3F)cc2s1` [II-0400]: more than 7.00 and 5.00 to 6.00.
As to `COc1ccc(Nc2nc(=O)n(-c3nncc4cnn(C)c34)c(=O)n2Cc2cc(F)c(F)c(F)c2)cc1` [II-0401], the pIC50 on SARS-CoV-2 3CL protease (RapidFire MS) is 6.54. Also, the pEC50 in the assay on SARS-CoV-2 (CellTiter-Glo 2.0) is 5.63.
Regarding `Cc1cncc(-n2c(=O)nc(Nc3cc4cn(C)nc4cc3Cl)n(Cc3cc(F)c(F)cc3Cl)c2=O)c1` [II-0402], the pIC50 at SARS-CoV-2 3CL protease (given as class symbols) is more than 7.00. Besides, the pEC50 in the assay on SARS-CoV-2 (class symbols) is more than 6.00.
For the compound `Cc1cncc(-n2c(=O)nc(Nc3cc4cn(C)nc4cc3Cl)n(Cc3cc(F)c(F)cc3C)c2=O)c1` [II-0403], at SARS-CoV-2 3CL protease (given as class symbols), the pIC50 is more than 7.00. The same compound gave a pEC50 in the assay on SARS-CoV-2 (class symbols) of more than 6.00.
The matching figures for `Cc1cncc(-n2c(=O)nc(Nc3cc4cn(C)nc4cc3Cl)n(Cc3cc(F)c(F)cc3Br)c2=O)c1` [II-0404]: more than 7.00 and more than 6.00.
For `Cn1cnc(Cn2c(=O)nc(Nc3cc4cn(C)nc4cc3Cl)n(Cc3cc(F)c(F)cc3Cl)c2=O)n1` [II-0405] the same measures were more than 7.00 and more than 6.00.
For `Cc1cc(F)c(F)cc1Cn1c(Nc2cc3cn(C)nc3cc2Cl)nc(=O)n(Cc2ncn(C)n2)c1=O` [II-0406] the same measures were more than 7.00 and more than 6.00.
Turning to `Cc1cncc(-n2c(=O)nc(Nc3cc4c(cc3Cl)nc3n4CCN3)n(Cc3ccc(F)c(C#N)c3)c2=O)c1` [II-0407], at SARS-CoV-2 3CL protease (RapidFire MS), the pIC50 is 8.42. The compound also had a pEC50 in the assay with SARS-CoV-2 (CellTiter-Glo 2.0) of 4.82.
Regarding `N#CC1(Cn2cc3cc(Nc4nc(=O)n(Cc5ccc[nH]c5=O)c(=O)n4Cc4cc(F)c(F)c(F)c4)c(Cl)cc3n2)CC1` [II-0412], at SARS-CoV-2 3CL protease (given as class symbols), the pIC50 is more than 7.00. The compound also gave a pEC50 with SARS-CoV-2 (class symbols) of 5.00 to 6.00.
Turning to `CC(C)Nc1nc2cc(Cl)c(Nc3nc(=O)n(Cc4ccc[nH]c4=O)c(=O)n3Cc3cc(F)c(F)c(F)c3)cc2s1` [II-0413], the pIC50 on SARS-CoV-2 3CL protease (given as class symbols) was more than 7.00. In the assay with SARS-CoV-2 (class symbols), the pEC50 is 5.00 to 6.00.
Turning to `CNc1nc2cc(Cl)c(Nc3nc(=O)n(-c4cncc(C)c4)c(=O)n3Cc3ccc(F)c(C#N)c3)cc2n1C` [II-0414], at SARS-CoV-2 3CL protease (given as class symbols), the pIC50 is more than 7.00. In addition, the pEC50 with SARS-CoV-2 (class symbols) is 5.00 to 6.00.
As to `N#Cc1cc(Cn2c(Nc3ccc4nn(CC(F)F)cc4c3)nc(=O)n(-c3cncc(Cl)c3)c2=O)ccc1F` [II-0415], the pIC50 on SARS-CoV-2 3CL protease (RapidFire MS) was 7.82. Further, the pEC50 in the assay on SARS-CoV-2 (CellTiter-Glo 2.0) is 6.06.
Take `Cc1cncc(-n2c(=O)nc(Nc3cc4sc(C)nc4cc3F)n(Cc3ccc(F)c(C#N)c3)c2=O)c1` [II-0416]: the pIC50 at SARS-CoV-2 3CL protease (given as class symbols) is more than 7.00. Further, the pEC50 in the assay with SARS-CoV-2 (class symbols) is 5.00 to 6.00.
`Cc1nc2cc(Br)c(Nc3nc(=O)n(Cc4ncn(C)n4)c(=O)n3Cc3cc(F)c(F)cc3F)cc2s1` [II-0417]: the pIC50 at SARS-CoV-2 3CL protease (given as class symbols) was more than 7.00. The pEC50 in the assay with SARS-CoV-2 (class symbols) was 5.00 to 6.00.
As for `COc1nc2cc(Cl)c(Nc3nc(=O)n(Cc4ccc[nH]c4=O)c(=O)n3Cc3cc(F)c(F)c(F)c3)cc2s1` [II-0418], at SARS-CoV-2 3CL protease (RapidFire MS), the pIC50 was 6.96. Moreover, the pEC50 in the assay on SARS-CoV-2 (CellTiter-Glo 2.0) is 5.20.
On to `CNc1nc2cc(F)c(Nc3nc(=O)n(-c4cncc(C)c4)c(=O)n3Cc3cc(C#N)ccc3C)cc2s1` [II-0419], for which, on SARS-CoV-2 3CL protease (given as class symbols), the pIC50 is more than 7.00. This compound showed a pEC50 in the assay with SARS-CoV-2 (class symbols) of more than 6.00.
As for `CNc1nc2ccc(Nc3nc(=O)n(-c4cncc(C)c4)c(=O)n3Cc3cc(C#N)c(F)cc3C)cc2s1` [II-0420], the pIC50 at SARS-CoV-2 3CL protease (given as class symbols) is more than 7.00. The compound further showed a pEC50 with SARS-CoV-2 (class symbols) of more than 6.00.
For `CNc1nc2ccc(Nc3nc(=O)n(-c4cncc(C)c4)c(=O)n3Cc3cc(C#N)c(F)cc3Cl)cc2s1` [II-0421] the same measures were more than 7.00 and more than 6.00.
Turning to `Cc1cncc(-n2c(=O)nc(Nc3ccc4nn(C)cc4c3)n(Cc3cc(C#N)ccc3Cl)c2=O)c1` [II-0422], the pIC50 on SARS-CoV-2 3CL protease (RapidFire MS) was 8.19. For the same compound, the pEC50 in the assay on SARS-CoV-2 (CellTiter-Glo 2.0) was 6.54.
With `Cc1cncc(-n2c(=O)nc(Nc3cc4sc(NCC(F)F)nc4cc3F)n(Cc3cc(F)c(F)c(C#N)c3)c2=O)c1` [II-0423], the pIC50 on SARS-CoV-2 3CL protease (given as class symbols) is more than 7.00. For the same compound, the pEC50 in the assay with SARS-CoV-2 (class symbols) was 5.00 to 6.00.
The matching figures for `Cc1cncc(-n2c(=O)nc(Nc3cc4sc(NCC(F)F)nc4cc3F)n(Cc3ccc(F)c(C#N)c3)c2=O)c1` [II-0424]: more than 7.00 and 5.00 to 6.00.
As to `Cc1cnc(Cn2c(=O)nc(Nc3cc4cn(C)nc4cc3Cl)n(Cc3cc(F)c(F)cc3F)c2=O)nc1` [II-0425], on SARS-CoV-2 3CL protease (RapidFire MS), the pIC50 was 6.59. In addition, the pEC50 in the assay with SARS-CoV-2 (CellTiter-Glo 2.0) was 5.23.
Regarding `Cc1cncc(-n2c(=O)nc(Nc3cc4cn(C)nc4cc3Cl)n(Cc3cc(Cl)ccc3C#N)c2=O)c1` [II-0426], on SARS-CoV-2 3CL protease (given as class symbols), the pIC50 is more than 7.00. The pEC50 with SARS-CoV-2 (class symbols) was more than 6.00.
For `Cn1cnc(Cn2c(=O)cc(Nc3cc4cn(CC(F)F)nc4cc3Cl)n(Cc3cc(F)c(F)c(F)c3)c2=O)n1` [II-0429] the same measures were more than 7.00 and 5.00 to 6.00.
The matching figures for `Cn1cnc(Cn2c(=O)cc(Nc3cc4cn(C)nc4cc3Cl)n(Cc3cc(F)c(F)c(F)c3)c2=O)n1` [II-0430]: more than 7.00 and 5.00 to 6.00.
